For 10 compounds, IC50 and inhibition results are on record in US20250368649A1, “TETRAHYDROPYRIDOPYRIMIDINE PAN-KRAS INHIBITORS” (Mirati Therapeutics, Inc., priority 2022, published 2025).

Structures are written as SMILES.

What is called IC50 is the concentration at which inhibition is half-maximal. Low values mean greater potency in that assay, high ones weaker potency in that assay. As usually defined, the inhibition is the change of the read-out against control, counted positive when it falls.

In one assay the test system is ASPC1 cells. Briefly: Inhibition of KRas-mediated phosphorylation of ERK (Cisbio HTRF pERK), ASPC1 cells. Conditions: Homo sapiens, AsPC-1 cells; for IC50: ASPC1, 3 h, 3 hr compound incubation, Cisbio pERK HTRF; for inhibition at 0.1 µM: ASPC1, single point at 100 nM, 3 hrs compound incubation. It counts as cell-based.
For the next assay, the system named is H727 cells. The assay is described as follows: Inhibition of KRas-mediated phosphorylation of ERK (Cisbio HTRF pERK), H727 cells. Format: cell-based. Conditions: Homo sapiens; for IC50: NCI-H727, 3 h, 3 hr compound incubation, Cisbio pERK HTRF; for inhibition at 0.1 µM: NCI-H727, single point at 100 nM, 3 hrs compound incubation. (In general: TR-FRET usually uses a lanthanide donor and a delayed reading to cut background.)

The next assay concerns H460 cells. The assay is described as follows: Inhibition of KRas-mediated phosphorylation of ERK (Cisbio HTRF pERK), H460 cells. Format: cell-based. Conditions: Homo sapiens, NCI-H460, single point at 100 nM, 3 hrs compound incubation.
Another assay relates to HCT116 cells. Briefly: Inhibition of KRas-mediated phosphorylation of ERK (Cisbio HTRF pERK), HCT116 cells. The note with it: Homo sapiens, HCT-116, single point at 100 nM, 3 hrs compound incubation. It counts as cell-based.
In a further assay the target is KRas G12D (Homo sapiens, UniProt P01116, G12D). The assay is described as follows: biochemical. Conditions: Binding to KRas (IC50 nM) G12D.
Another assay deals with KRas G12R (Homo sapiens, UniProt P01116, G12R). Briefly: biochemical. The note with it: Binding to KRas (IC50 nM) G12R.
Another assay has as its target KRas G12V (Homo sapiens, UniProt P01116, G12V). The assay is described as follows: biochemical. The note with it: Binding to KRas (IC50 nM) G12V.
The next assay has as its system A549 cells. The assay is described as follows: Inhibition of KRas-mediated phosphorylation of ERK (Cisbio HTRF pERK), A549 cells. Format: cell-based. The note with it: Homo sapiens, single point at 100 nM, 3 hrs compound incubation.
For a further assay, the system named is H358 cells. The assay is described as follows: Inhibition of KRas-mediated phosphorylation of ERK (Cisbio HTRF pERK), H358 cells. Format: cell-based. Conditions: Homo sapiens, NCI-H358, single point at 100 nM, 3 hrs compound incubation.
Setting [1] is: TR-FRET displacement, KRas G12D.
Setting [2] is: TR-FRET displacement, KRas G12R.
The mark [3] stands for this setting: TR-FRET displacement, KRas G12V.

Chain of KRas G12R (P01116 1-169 isoform P01116-2 G12R): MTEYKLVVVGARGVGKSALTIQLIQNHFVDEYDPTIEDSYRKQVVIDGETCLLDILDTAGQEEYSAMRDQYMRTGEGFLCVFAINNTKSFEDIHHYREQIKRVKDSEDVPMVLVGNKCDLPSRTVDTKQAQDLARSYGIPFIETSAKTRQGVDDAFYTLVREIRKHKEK
Chain of KRas G12D (P01116 1-169 isoform P01116-2 G12D): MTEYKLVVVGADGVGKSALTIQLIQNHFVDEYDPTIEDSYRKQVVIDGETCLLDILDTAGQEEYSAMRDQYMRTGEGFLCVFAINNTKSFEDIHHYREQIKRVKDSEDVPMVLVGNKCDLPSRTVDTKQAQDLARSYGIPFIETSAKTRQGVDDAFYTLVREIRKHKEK
Chain of KRas G12V (P01116 1-169 isoform P01116-2 G12V): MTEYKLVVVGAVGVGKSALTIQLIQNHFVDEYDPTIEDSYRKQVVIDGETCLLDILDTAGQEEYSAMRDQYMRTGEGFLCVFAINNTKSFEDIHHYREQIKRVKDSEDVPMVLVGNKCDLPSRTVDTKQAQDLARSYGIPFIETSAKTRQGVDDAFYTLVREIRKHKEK

For the compound `CCc1c(F)ccc2cc(O)cc(N3CCc4c(nc(OC[C@@]56CCCN5C[C@H](F)C6)nc4N4CCCn5nc(C(C(F)F)N(C)C)cc5C4)C3)c12` (stereo partly drawn) [Example 263, 4-(4-(2-(1-(dimethylamino)-2,2-difluoroethyl)-7,8-dihydro-4H-pyrazolo[1,5-a][1,4]diazepin-5(6H)-yl)-2-(((2R,7aS)-2-fluorotetrahydro-1H-pyrrolizin-7a(5H)-yl)methoxy)-5,8-dihydropyrido[3,4-d]pyrimidin-7(6H)-yl)-5-ethyl-6-fluoronaphthalen-2-ol], the IC50 was 5370 nM with ASPC1 cells; 8770 nM with H727 cells; 109 nM at KRas G12D (setting [1]); 261 nM on KRas G12R (setting [2]); 295 nM on KRas G12V (setting [3]). In addition, the inhibition at 0.1 µM is -31% in the assay with H460 cells and -11% in the assay on HCT116 cells.

For `CCc1c(F)ccc2cc(O)cc(N3CCc4c(nc(OC[C@@]56CCCN5C[C@H](F)C6)nc4N4CCn5cncc5C4)C3)c12` [Example 279, 4-(4-(5,6-dihydroimidazo[1,5-a]pyrazin-7(8H)-yl)-2-(((2R,7aS)-2-fluorohexahydro-1H-pyrrolizin-7a-yl)methoxy)-5,6-dihydropyrido[3,4-d]pyrimidin-7(8H)-yl)-5-ethyl-6-fluoronaphthalen-2-ol], the IC50 in the assay on ASPC1 cells is over 10000 nM; with H727 cells, 5080 nM; on KRas G12D (setting [1]) it was 93 nM; at KRas G12R (setting [2]), 25 nM; on KRas G12V (setting [3]), 22 nM. Moreover, the values for the inhibition at 0.1 µM in the assay on H460 cells and with HCT116 cells were 0% and 4%, respectively.

With `CCc1c(F)ccc2cc(O)cc(N3CCc4c(nc(OC[C@@]56CCCN5C[C@H](F)C6)nc4N4CCCn5nc(C(N(C)C)C(F)(F)F)cc5C4)C3)c12` (stereo partly drawn) [Example 280, 4-(4-(2-(1-(dimethylamino)-2,2,2-trifluoroethyl)-7,8-dihydro-4H-pyrazolo[1,5-a][1,4]diazepin-5(6H)-yl)-2-(((2R,7aS)-2-fluorotetrahydro-1H-pyrrolizin-7a(5H)-yl)methoxy)-5,8-dihydropyrido[3,4-d]pyrimidin-7(6H)-yl)-5-ethyl-6-fluoronaphthalen-2-ol], the IC50 is 7000 nM with ASPC1 cells; over 10000 nM with H727 cells; 195 nM on KRas G12D (setting [1]); 230 nM on KRas G12R (setting [2]); 264 nM at KRas G12V (setting [3]). The inhibition at 0.1 µM was -20% in the assay with A549 cells and 14% in the assay with H358 cells.

As for `CCc1c(F)ccc2cc(O)cc(N3CCc4c(nc(OC[C@@]56CCCN5C[C@H](F)C6)nc4N4CCCn5nc(N(C(C)=O)C(C)C)cc5C4)C3)c12` [Example 287, N-(5-(7-(8-ethyl-7-fluoro-3-hydroxynaphthalen-1-yl)-2-(((2R,7aS)-2-fluorohexahydro-1H-pyrrolizin-7a-yl)methoxy)-5,6,7,8-tetrahydropyrido[3,4-d]pyrimidin-4-yl)-5,6,7,8-tetrahydro-4H-pyrazolo[1,5-a][1,4]diazepin-2-yl)-N-i sopropyvlacetamide], the IC50 is 6450 nM in the assay on ASPC1 cells; over 10000 nM with H727 cells; 505 nM on KRas G12D (setting [1]); 441 nM on KRas G12R (setting [2]); 717 nM on KRas G12V (setting [3]). The inhibition at 0.1 µM with A549 cells is -15%; in the assay with H358 cells, -20%.

Regarding `CCc1c(F)ccc2cc(O)cc(N3CCc4c(nc(OC[C@@]56CCCN5C[C@H](F)C6)nc4N4CC(=O)Nc5cc(Br)ccc5C4)C3)c12` [Example 319, 8-bromo-4-(7-(8-ethyl-7-fluoro-3-hydroxynaphthalen-1-yl)-2-(((2R,7aS)-2-fluorotetrahydro-1H-pyrrolizin-7a(5H)-yl)methoxy)-5,6,7,8-tetrahydropyrido[3,4-d]pyrimidin-4-yl)-1,3,4,5-tetrahydro-2H-benzo[e][1,4]diazepin-2-one], the IC50 with ASPC1 cells was determined as 7080 nM; in the assay with H727 cells it was 3360 nM; on KRas G12D (setting [1]), 32800 nM; on KRas G12R (setting [2]), 6880 nM; on KRas G12V (setting [3]) it was 4620 nM. Further, the inhibition at 0.1 µM in the assay on H460 cells was -10%; with HCT116 cells, 8%.

For `CCc1c(F)ccc2cc(OP(C)(C)=O)cc(N3CCc4c(nc(OC[C@@]56CCCN5C[C@H](F)C6)nc4N4CCCn5nc(NC)cc5C4)C3)c12` [Example 446, 5-ethyl-6-fluoro-4-(2-(((2R,7aS)-2-fluorohexahydro-1H-pyrrolizin-7a-yl)methoxy)-4-(2-(methylamino)-7,8-dihydro-4H-pyrazolo[1,5-a][1,4]diazepin-5(6H)-yl)-5,6-dihydropyrido[3,4-d]pyrimidin-7(8H)-yl)naphthalen-2-yl dimethylphosphinate], the inhibition at 0.1 µM with ASPC1 cells is 21%; in the assay with H727 cells, 13%; with H460 cells, 27%; in the assay on HCT116 cells, 0%. The IC50 was 12 nM on KRas G12D, 3 nM on KRas G12R and 9 nM at KRas G12V.

On to `CCc1c(F)ccc2cc(O)cc(N3CCc4c(nc(N5CC(C)(N)C5)nc4N4CCCC5(C4)NC(=O)NC5=O)C3)c12` (stereo not drawn) [Example 488, 7-(2-(3-amino-3-methylazetidin-1-yl)-7-(8-ethyl-7-fluoro-3-hydroxynaphthalen-1-yl)-5,6,7,8-tetrahydropyrido[3,4-d]pyrimidin-4-yl)-1,3,7-triazaspiro[4.5]decane-2,4-dione], for which the IC50 with ASPC1 cells was over 10000 nM; in the assay with H727 cells it was 7510 nM; on KRas G12D (setting [1]) it was 20 nM; at KRas G12R (setting [2]), 13 nM; on KRas G12V (setting [3]), 9 nM. Also, the inhibition at 0.1 µM was 13% in the assay on ASPC1 cells, 5% with H727 cells, 14% in the assay with H460 cells and -1% in the assay on HCT116 cells.

For `CCc1c(F)ccc2cc(O)cc(N3CCc4c(nc(OC[C@@]56CCCN5C[C@H](F)C6)nc4N4CCCn5nc(CS(=O)(=O)NC)cc5C4)C3)c12` [Example 495, 1-(5-(7-(8-ethyl-7-fluoro-3-hydroxynaphthalen-1-yl)-2-(((2R,7aS)-2-fluorohexahydro-1H-pyrrolizin-7a-yl)methoxy)-5,6,7,8-tetrahydropyrido[3,4-d]pyrimidin-4-yl)-5,6,7,8-tetrahydro-4H-pyrazolo[1,5-a][1,4]diazepin-2-yl)-N-methylmethanesulfonamide], the IC50 with ASPC1 cells is 1240 nM; in the assay with H727 cells, 2900 nM; on KRas G12D (setting [1]), 3 nM; at KRas G12R (setting [2]), 11 nM; at KRas G12V (setting [3]) it was 12 nM. Also, the inhibition at 0.1 µM in the assay with ASPC1 cells was -1%; with H727 cells, 3%; in the assay with A549 cells, 26%; in the assay on H358 cells it was 1%.

For the compound `CCCCCCCCN(C)C(=O)c1cc2n(n1)CCCN(c1nc(OC[C@@]34CCCN3C[C@H](F)C4)nc3c1CCN(c1cc(O)cc4ccc(F)c(CC)c14)C3)C2` [Example 498, 5-(7-(8-ethyl-7-fluoro-3-hydroxynaphthalen-1-yl)-2-(((2R,7aS)-2-fluorohexahydro-1H-pyrrolizin-7a-yl)methoxy)-5,6,7,8-tetrahydropyrido[3,4-d]pyrimidin-4-yl)-N-methyl-N-octyl-5,6,7,8-tetrahydro-4H-pyrazolo[1,5-a][1,4]diazepine-2-carboxamide], the IC50 in the assay on ASPC1 cells turned out to be 258 nM; with H727 cells, 410 nM; at KRas G12D (setting [1]) it was 10 nM; on KRas G12R (setting [2]), 22 nM; on KRas G12V (setting [3]), 9 nM. The inhibition at 0.1 µM is -13% in the assay with ASPC1 cells, 12% in the assay on H727 cells, 25% with A549 cells and 5% with H358 cells.

Consider `CCc1c(F)ccc2cc(O)cc(N3CCc4c(nc(OC[C@@]56CCCN5C[C@H](F)C6)nc4N4CCCn5nc(C(=O)N6CC7(CNC7)C6)cc5C4)C3)c12` [Example 505, (5-(7-(8-ethyl-7-fluoro-3-hydroxynaphthalen-1-yl)-2-(((2R,7aS)-2-fluorohexahydro-1H-pyrrolizin-7a-yl)methoxy)-5,6,7,8-tetrahydropyrido[3,4-d]pyrimidin-4-yl)-5,6,7,8-tetrahydro-4H-pyrazolo[1,5-a][1,4]diazepin-2-yl)(2,6-diazaspiro[3.3]heptan-2-yl)methanone], for which the IC50 in the assay on ASPC1 cells was 128 nM; in the assay with H727 cells it was 1080 nM. In addition, the inhibition at 0.1 µM in the assay on ASPC1 cells worked out at 30%; with H727 cells it was 26%; in the assay with H460 cells, 0%; in the assay on HCT116 cells it was 7%.
